Test results: ChEMBL document CHEMBL3352097, “Small molecule inhibitors targeting activator protein 1 (AP-1)” (J Med Chem, 2014)
Bridge positions count the residues as written; N and C are the ends. Peptide text beside a SMILES is read from it.

Columns and labels:
[1] = target: Transcription factor Jun (Mus musculus) (UniProt P05627); test: Inhibition of AP-1-mediated transcriptional activation in lipopolysaccharide-stimulated mouse RAW 264.7 cells assessed ratio of luciferase activity normalized to Renilla luciferase activity by luciferase reporter gene assay
Sequence of Transcription factor Jun (Mus musculus) (P05627 whole entry): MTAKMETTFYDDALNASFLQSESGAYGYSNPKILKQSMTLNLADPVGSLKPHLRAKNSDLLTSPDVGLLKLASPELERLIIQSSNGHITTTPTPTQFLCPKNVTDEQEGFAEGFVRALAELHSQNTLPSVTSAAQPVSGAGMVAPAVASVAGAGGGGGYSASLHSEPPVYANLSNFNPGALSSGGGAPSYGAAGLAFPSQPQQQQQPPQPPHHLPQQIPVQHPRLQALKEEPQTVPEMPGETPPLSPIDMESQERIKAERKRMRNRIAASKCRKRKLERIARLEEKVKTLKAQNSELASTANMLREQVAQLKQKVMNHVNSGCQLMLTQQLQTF

[2] = target: T1, Transcription factor Jun (Homo sapiens, UniProt P05412); test: Inhibition of AP-1-mediated transcriptional activation in human Jurkat cells by luciferase reporter gene assay; type: cell-based
T1 sequence (P05412 whole entry): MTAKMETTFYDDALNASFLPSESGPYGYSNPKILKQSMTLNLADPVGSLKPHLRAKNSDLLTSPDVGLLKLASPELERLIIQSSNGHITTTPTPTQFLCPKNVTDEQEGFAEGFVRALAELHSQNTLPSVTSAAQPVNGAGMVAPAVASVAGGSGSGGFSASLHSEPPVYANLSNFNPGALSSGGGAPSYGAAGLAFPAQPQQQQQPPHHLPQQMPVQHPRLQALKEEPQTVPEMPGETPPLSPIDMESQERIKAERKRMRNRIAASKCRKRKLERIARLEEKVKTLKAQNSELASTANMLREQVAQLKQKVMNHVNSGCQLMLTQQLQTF

[3] = target: Nuclear factor NF-kappa-B complex (Homo sapiens, UniProt Q00653+P19838+Q04206); test: Inhibition of NF-kappaB-mediated transcriptional activation in human Jurkat cells by luciferase reporter gene assay; type: cell-based
Sequence of Nuclear factor NF-kappa-B complex (P19838 1-433 limits assumed): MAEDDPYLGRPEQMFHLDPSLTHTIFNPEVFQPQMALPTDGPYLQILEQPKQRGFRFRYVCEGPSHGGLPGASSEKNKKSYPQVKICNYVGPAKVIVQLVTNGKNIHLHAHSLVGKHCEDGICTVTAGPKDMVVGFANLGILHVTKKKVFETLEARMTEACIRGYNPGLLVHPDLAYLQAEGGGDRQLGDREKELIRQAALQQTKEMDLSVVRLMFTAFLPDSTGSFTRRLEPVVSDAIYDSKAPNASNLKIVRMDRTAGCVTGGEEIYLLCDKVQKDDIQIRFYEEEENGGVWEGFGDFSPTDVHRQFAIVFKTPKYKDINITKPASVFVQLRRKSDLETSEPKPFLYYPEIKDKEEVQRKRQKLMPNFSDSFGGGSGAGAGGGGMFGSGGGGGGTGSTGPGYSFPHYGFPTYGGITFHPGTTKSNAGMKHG
Sequence of Nuclear factor NF-kappa-B complex (Q00653 1-454 limits assumed): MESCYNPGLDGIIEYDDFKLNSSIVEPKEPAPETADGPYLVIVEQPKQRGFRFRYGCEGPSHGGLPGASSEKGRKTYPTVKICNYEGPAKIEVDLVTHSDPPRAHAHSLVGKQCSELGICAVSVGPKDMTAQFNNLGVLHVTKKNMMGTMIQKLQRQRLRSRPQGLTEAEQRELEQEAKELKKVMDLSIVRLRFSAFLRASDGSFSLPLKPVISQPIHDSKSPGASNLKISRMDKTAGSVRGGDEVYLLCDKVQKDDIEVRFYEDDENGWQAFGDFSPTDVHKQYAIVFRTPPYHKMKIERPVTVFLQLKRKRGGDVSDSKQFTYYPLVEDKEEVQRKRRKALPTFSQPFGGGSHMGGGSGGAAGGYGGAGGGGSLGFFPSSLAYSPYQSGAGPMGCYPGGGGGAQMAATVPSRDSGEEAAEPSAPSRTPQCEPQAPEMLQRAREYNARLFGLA
Sequence of Nuclear factor NF-kappa-B complex (Q04206 whole entry): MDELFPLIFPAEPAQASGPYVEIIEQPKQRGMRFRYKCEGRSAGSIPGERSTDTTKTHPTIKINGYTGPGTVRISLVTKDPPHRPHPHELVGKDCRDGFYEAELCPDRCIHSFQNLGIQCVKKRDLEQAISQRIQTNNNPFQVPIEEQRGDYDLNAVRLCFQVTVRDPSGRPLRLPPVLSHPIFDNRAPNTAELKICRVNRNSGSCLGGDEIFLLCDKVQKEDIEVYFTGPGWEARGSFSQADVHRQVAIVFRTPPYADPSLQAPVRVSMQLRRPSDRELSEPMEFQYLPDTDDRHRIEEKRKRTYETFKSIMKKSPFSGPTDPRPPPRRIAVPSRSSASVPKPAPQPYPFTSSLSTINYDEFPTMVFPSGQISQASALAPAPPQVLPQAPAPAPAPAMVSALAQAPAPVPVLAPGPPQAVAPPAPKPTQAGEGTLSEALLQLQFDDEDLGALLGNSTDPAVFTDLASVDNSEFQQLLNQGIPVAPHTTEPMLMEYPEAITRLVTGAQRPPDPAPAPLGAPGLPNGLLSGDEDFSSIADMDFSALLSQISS

[4] = target: T1, Transcription factor Jun; test: Inhibition of UVB-induced AP-1 activation (unknown origin) by cell-based assay
[5] = target: T1, Transcription factor Jun; test: Inhibition of AP-1-mediated transcriptional activation in HEK293 cells by luciferase reporter gene assay; type: cell-based
[6] = target: T1, Transcription factor Jun; test: Inhibition of AP-1 (unknown origin) expressed in TPA-stimulated mouse NIH3T3 cells by luciferase reporter gene assay; type: cell-based
[7] = target: T1, Transcription factor Jun; test: Inhibition of AP-1 (unknown origin) by FRET assay
[8] = target: T1, Transcription factor Jun; test: Inhibition of AP-1 bZIP domain DNA binding activity (unknown origin) by ELISA
[9] = target: T2, Transcription factor AP1 (Homo sapiens, UniProt P01100+P05412); test: Inhibition of Fos-Jun dimer formation (unknown origin) by EMSA method; type: protein-complex assay
T2 sequence (P05412 whole entry): as the sequence (P05412 whole entry) above
T2 sequence (P01100 whole entry): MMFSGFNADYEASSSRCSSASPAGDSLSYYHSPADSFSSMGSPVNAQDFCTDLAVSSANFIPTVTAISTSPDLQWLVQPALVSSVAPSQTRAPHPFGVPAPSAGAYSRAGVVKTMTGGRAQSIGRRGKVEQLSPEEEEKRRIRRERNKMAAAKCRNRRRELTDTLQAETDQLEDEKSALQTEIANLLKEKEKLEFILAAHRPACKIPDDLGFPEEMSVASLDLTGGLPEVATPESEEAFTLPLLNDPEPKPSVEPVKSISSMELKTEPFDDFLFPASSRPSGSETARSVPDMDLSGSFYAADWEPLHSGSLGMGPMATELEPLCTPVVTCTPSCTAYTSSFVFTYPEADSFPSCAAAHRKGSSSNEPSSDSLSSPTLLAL

[10] = target: T1, Transcription factor Jun; test: Inhibition of AP-1-mediated transcriptional activation in human HeLa cells at 1 ug/ml; type: cell-based
[11] = target: T1, Transcription factor Jun; test: Inhibition of AP-1-mediated transcriptional activation in human HeLa cells at 10 ug/ml; type: cell-based
[12] = target: T2, Transcription factor AP1; test: Inhibition of Fos-Jun dimer formation (unknown origin); type: protein-complex assay
[13] = species: Rattus norvegicus; test: Antiinflammatory activity in adjuvant-induced arthritis rat model assessed as reduction in swelling in noninjected foot; type: functional

C[C@@]12CC[C@H]3[C@]4(C)CCC[C@@](C)(C(=O)O)[C@H]4C[C@H](O)[C@]3(CC(=O)O1)C2
Ratio [1]: 2.39

CC1=CC(=O)N(Nc2ncc(-c3coc(C)n3)c(-c3cccs3)n2)C1=O
IC50 [2]: 0.76 µM

CCOC(=O)c1cnc(-c2cccs2)nc1NN1C(=O)C=C(C)C1=O
IC50 [3]: 0.02 µM | IC50 [2]: 0.02 µM

O=C1Nc2cc(C(F)(F)F)ccc2Nc2nc(Cl)ncc21
IC50 [2]: 10 µM

COC(=O)C1=CO[C@@H](O[C@@H]2O[C@H](CO)[C@@H](O)[C@H](O)[C@H]2O)[C@H]2[C@@H]1[C@@H]1O[C@@H]1[C@]2(O)C(=O)O/C=C(\C(=O)O)c1ccc(O)c(OC)c1
IC50 [4]: 29 µM

CCOC(=O)c1cnc(N(C)N2C(=O)C=C(C)C2=O)nc1CC
IC50 [2]: 0.035 µM

Cc1ccccc1-n1c(-c2sc(Nc3ccccc3)nc2C)nc2ccccc2c1=O
IC50 [5]: 5.5 µM

C[C@@]12CC[C@@H]3[C@@](C/C1=N\O)(C2)[C@H](O)C[C@H]1[C@@]3(C)[C@@H](O)CC[C@@]1(C)C(=O)O
Ratio [1]: 2.69

C[C@@]12CC[C@@H]3[C@@](CC[C@H]4[C@@]3(C)CCC[C@@]4(C)C(=O)O)(CC(=O)O1)C2
Ratio [1]: 2.38

CC(C)COc1ccc(C(=O)c2ccc(OCC(C)C)c(CCC(=O)O)c2)cc1
IC50 [6]: 5 µM

O=C(Nc1cc(C(F)(F)F)cc(C(F)(F)F)c1)c1cnc(F)nc1C(F)(F)F
IC50 [3]: 0.4 µM

Cc1nc(Cl)ncc1C(=O)Nc1cc(C(F)(F)F)cc(C(F)(F)F)c1
IC50 [3]: 0.05 µM

COC1=C(C)[C@@H]2CC(=O)O[C@@H]3C[C@H]4[C@H](C)[C@@H](O)[C@H](O)C(=O)[C@]4(C)[C@@H](C1=O)[C@@]32C [NOTHOSPONDIN]
EC50 [7]: 0.13 µM

CNc1nc(C)c(-c2nc3ccccc3c(=O)n2-c2ccc(Cl)cc2)s1
IC50 [5]: 1.2 µM

O=C(Nc1cc(C(F)(F)F)cc(C(F)(F)F)c1)c1cnc(Cl)nc1-c1ccccc1
IC50 [3]: 0.4 µM | IC50 [2]: 0.4 µM

C[C@@]12CC[C@@H]3[C@@](CC[C@H]4[C@@]3(C)CCC[C@@]4(C)C(=O)O)(C/C1=N\O)C2
Ratio [1]: 4.87

C[C@@]12CCC[C@@](C)(C(=O)O)[C@H]1CC[C@]13CC(=O)O[C@](C)(C1)[C@H](O)C[C@H]32
Ratio [1]: 2.73

O=C(O)CCc1cc(C(=O)c2ccc(OC3CCCC3)cc2O)ccc1OCc1ccc2c(O)noc2c1
IC50 [8]: 10 µM | IC50 [6]: 10 µM

CC1=CC[C@@H]2[C@](CC#N)(CC[C@H]3[C@@]2(C)CCC[C@@]3(C)C(=O)O)C1
Ratio [1]: 2.22

CC1(C)CC[C@]2(C(=O)O)CC[C@]3(C)C(=CC[C@@H]4[C@@]5(C)CC[C@H](O[C@@H]6O[C@H](C(=O)O)[C@@H](O)[C@H](O[C@@H]7OC[C@H](O)[C@H](O)[C@H]7O)[C@H]6O)C(C)(C)[C@@H]5CC[C@]43C)[C@@H]2C1
IC50 [9]: 130 µM

O=C(Nc1cc(Cl)cc(Cl)c1)c1cc(Cl)ccc1O
inhibition [10]: 22.7% | inhibition [11]: 74.8%

C[C@@]12CC[C@@H]3[C@@](CC1=O)(C2)[C@@H](O)C[C@H]1[C@@]3(C)[C@@H](O)CC[C@@]1(C)C(=O)O
Ratio [1]: 2.98

CC1=CC(=O)N(Nc2ncc(C(=O)OC(C)(C)C)c(C(F)(F)F)n2)C1=O
IC50 [2]: 0.21 µM

COC(=O)C1=CO[C@@H](O[C@@H]2O[C@H](CO)[C@@H](O)[C@H](O)[C@H]2O)[C@H]2[C@H]1C(C)=C[C@@]2(O)C(=O)O/C=C(\C(=O)O)c1ccc(O)c(OC)c1
IC50 [4]: 69.6 µM

C[C@@]12CC[C@@H]3[C@@](CC[C@H]4[C@@]3(C)CCC[C@@]4(C)C(=O)O)(COC1=O)C2
Ratio [1]: 1.88

O=C(Nc1cc(C(F)(F)F)cc(C(F)(F)F)c1)c1nnc(Cl)cc1C(F)(F)F
IC50 [3]: 10 µM | IC50 [2]: 10 µM

O=C(Nc1cc(C(F)(F)F)cc(C(F)(F)F)c1)c1cc(Br)ccc1O
inhibition [10]: 48.4% | inhibition [11]: 91.2%

CCOC(=O)c1cnc(NN2C(=O)C=C(C)C2=O)nc1CC
IC50 [2]: 0.4 µM

CC[C@](C)(O)C(=O)O[C@H]1C(=O)O[C@@H]2C[C@H]3C(C)=CC(=O)[C@@H](O)[C@]3(C)[C@H]3[C@@]4(O)OC[C@]32[C@@H]1[C@@H](C)[C@H]4O [GLAUCARUBINONE]
EC50 [7]: 1.49 µM

CCOC(=O)c1cnc(N(C)N2C(=O)C=C(C)C2=O)nc1C(F)(F)F
IC50 [2]: 0.3 µM

O=C(Nc1cc(C(F)(F)F)cc(C(F)(F)F)c1)c1ccc(Cl)nn1
IC50 [3]: 1.7 µM | IC50 [2]: 1.7 µM

C[C@@]12CCC[C@@](C)(C(=O)O)[C@H]1CC[C@@]13CC(=O)O[C@@](CO)(CC[C@H]12)C3
Ratio [1]: 2.58

C[C@@]12CC[C@@H]3[C@@](CC[C@H]4[C@@]3(C)[C@@H](O)CC[C@@]4(C)C(=O)O)(COC1=O)C2
Ratio [1]: 2.66

C[C@@H]1C[C@H]2[C@@H]3CCC4=CC(=O)C=C[C@]4(C)[C@@]3(F)[C@@H](O)C[C@]2(C)[C@@]1(O)C(=O)CO
Ratio [1]: 2.33

CC1=CC(=O)N(Nc2ncc(C(=O)c3ccccc3)c(C(F)(F)F)n2)C1=O
IC50 [2]: 0.098 µM

CCc1nc(NN2C(=O)C=C(C)C2=O)ncc1-c1coc(C)n1
IC50 [2]: 0.83 µM

CNc1nc(C)c(-c2nc3ccccc3c(=O)n2-c2ccccc2C)s1
IC50 [5]: 5.5 µM

Cc1ccc(/C=C/C(=O)/C=C(O)/C=C/c2ccc(C)cc2)cc1
IC50 [9]: 8.98 µM

CC(=O)c1cnc(NN2C(=O)C=C(C)C2=O)nc1C(F)(F)F
IC50 [2]: 4.4 µM

CCOC(=O)c1cnc(NN2C(=O)C=C(C)C2=O)nc1C(F)(F)F
IC50 [2]: 2 µM

O=C(c1cnc(Cl)nc1C(F)(F)F)N1COCc2ccc(C(F)(F)F)cc21
IC50 [2]: 10 µM

CC(Cc1ccc(O)c(O)c1)C(C)Cc1ccc(O)c(O)c1 (stereo not given) [NORDIHYDROGUAIARETIC ACID]
IC50 [12]: 0.0079 µM

O=C(Nc1cc(C(F)(F)F)cc(C(F)(F)F)c1)c1cnc(Cl)nc1C(F)(F)F
IC50 [3]: 0.05 µM | IC50 [2]: 0.05 µM

Cc1nc(Cl)ncc1C(=O)Nc1cc(Cl)cc(Cl)c1
IC50 [2]: 0.5 µM

O=C(Nc1cc(C(F)(F)F)cc(C(F)(F)F)c1)c1cnc(Cl)nc1Cl
IC50 [3]: 0.6 µM

CCOC(=O)c1cnc(-c2ccccc2)nc1NN1C(=O)C=C(C)C1=O
IC50 [3]: 0.1 µM | IC50 [2]: 0.1 µM

Cc1cc(C(=O)Nc2ccc(C(F)(F)F)cc2C(F)(F)F)nc(Cl)n1
IC50 [2]: > 10 µM

O=C(Nc1cc(C(F)(F)F)cc(C(F)(F)F)c1)c1cc(I)ccc1O
inhibition [10]: 25.4% | inhibition [11]: 82.4%

COc1ccc2nc(-c3cccs3)nc(NN3C(=O)C=C(C)C3=O)c2c1
IC50 [2]: 0.003 µM

O=C(Nc1cc(Cl)cc(Cl)c1)c1cc(Br)ccc1O
inhibition [10]: 39.3% | inhibition [11]: 83.8%

CC(=O)c1ccc(-n2c(-c3cc(-c4ccncc4)c(N4CCOCC4)s3)nc3ccccc3c2=O)cc1
IC50 [5]: 5 µM

CCOC(=O)c1cnc(C(F)(F)F)nc1NN1C(=O)C=C(C)C1=O
IC50 [3]: 1 µM | IC50 [2]: 1 µM

C[C@@]12CC[C@H]3[C@]4(C)CCC[C@@](C)(C(=O)O)[C@H]4C[C@H](O)[C@]3(CC1=O)C2
Ratio [1]: 2.69

C[C@H]1[C@H](C)CC[C@]2(COC(=O)c3ccccc3C(=O)O)CC[C@]3(C)C(=CC[C@@H]4[C@@]5(C)CC[C@H](OC(=O)c6ccccc6C(=O)O)C(C)(C)[C@@H]5CC[C@]43C)[C@H]12
IC50 [9]: 4 µM

CC1=C[C@@]2(CC#N)CC[C@H]3[C@@](C)(CCC[C@@]3(C)C(=O)O)[C@@H]2CC1
Ratio [1]: 2.85

CC(=O)N[C@H]1CSSC[C@@H](C(N)=O)NC(=O)CNC(=O)[C@H](CC(=O)O)NC(=O)[C@H](C)NC(=O)[C@H](CC(C)C)NC(=O)[C@H](CC(=O)O)NC(=O)[C@H](CC(C)C)NC(=O)[C@H](CCC(N)=O)NC(=O)CNC1=O (Ac-CGQLDLADGC-NH2; disulfide 1-10)
IC50 [8]: 64 µM

CCOC(=O)c1cnc(NN2C(=O)C=C(C)C2=O)nc1-c1ccc(C)s1
IC50 [2]: 0.045 µM

O=C(Nc1cc(C(F)(F)F)cc(C(F)(F)F)c1)c1cnc(Cl)cn1
IC50 [3]: 4 µM | IC50 [2]: 4 µM

COc1cc(CC(C)C(C)Cc2ccc(O)c(OC)c2)ccc1O (stereo not given) [DIHYDROGUAIARETIC ACID]
IC50 [12]: 0.21 µM

COc1cccc2nc(-c3cccs3)nc(NN3C(=O)C=C(C)C3=O)c12 [AS-602868]
inhibition (INH) [13]: 65% | IC50 [2]: 0.008 µM

O=C(Nc1cc(C(F)(F)F)cc(C(F)(F)F)c1)c1cc(Cl)ccc1O
inhibition [10]: 42.4% | inhibition [11]: 89.1%

O=C(Nc1cc(Cl)cc(Cl)c1)c1cc(I)ccc1O
inhibition [11]: 75.4%

Cc1nc(Nc2ccc(Cl)cc2)sc1-c1nc2ccccc2c(=O)n1-c1ccc(Cl)cc1
IC50 [5]: 1.2 µM

O=C(Nc1ccc(C(F)(F)F)cc1C(F)(F)F)c1cc(C(F)(F)F)nc(Cl)n1
IC50 [2]: > 10 µM

COc1cccc(/C=C/C(=O)/C=C(O)/C=C/c2cccc(OC)c2)c1
IC50 [9]: 5.4 µM
